Experimental data published in patent US7465738B2, “Compounds useful as promoters of SMN2” (Vertex Pharmaceuticals Incorporated, priority 2003, dated 2008).

These compounds were tested on SMN2 promoter (assay: SMN2 promoter-β-lactamase (BLA) assay in NSC-34 cells). Details: 15 NSC-34 SMN2-promoter-BLA clones with low BLA activity.
Format: cell-based, mouse
Description: Compounds were screened for their ability to increase SMN2 gene transcription. In general the screening method of the invention involves the use of an SMN2 promoter-β-lactamase (BLA) assay in NSC-34 cells. […] This construct was transfected into the NSC-34 cells and a stable pool of SMN2-promoter-BLA cells was generated. […] Optimized protocols are presented in the procedures below. […] Subculture Protocol for and the […]-Bla Cell Line (#5.3) and the SMN2 Promoter-Bla Cell Line (#11). […] Cells were kept at a density between 50,000 and 500,000/ml and were fed every three days with DMEM 5% FCS and incubated at 37° C., 5% CO2 and 90% humidity. • b. Cells were then plated at low density (50,000 cells/ml). • c. […] Cells were fed by manually pipetting the cells, and passaging the cells 1 to 10 to a new flask. […] Standard Assay Protocol #1 for SMN2 Promoter Assays in 96-Well Plates: • e. Cells were washed twice with cold PBS by spinning down and resuspending at 250,000 cells/ml. • f. Cells were resuspended in DMEM 0% FCS at a density of 500,000 cells/ml. • g. Cells were then dispensed 100 μl cells per well of a 96-well, black wall, clear bottom assay plate (Corning Costar, Cat. # 3904). Plate can be pre-formatted with test compounds. • h. […] Cells were incubated for 1 hour in the dark at room temperature. • 6×CCF2-AM Staining Solution: • 60 μl of Sol B • 6 μl of CCF2-AM (1 mM) • 12 μl of Probenecid (1 M, Sigma, Cat # 8761) • 1 μl of Sol C • j. Assay plates were read on a fluorimeter (for example, the Cytofluor 4000 from Perceptive Biosystems) using the following two settings: 460/40 nm emission with 395/25 nm excitation, and 530/25 nm emission with 395/25 nm excitation. • k. […] Standard Assay Protocol #2 for SMN2 Promoter Assays in 96-Well Plates: • l. Cells were washed twice with cold PBS by spinning down and resuspending at 250,000 cells/ml. • m. Cells were then resuspended in DMEM 1% FCS Charcoal Dextran-treated (Hyclone, Cat # SH30038.05) at a density of […]. • n. Cells were then incubated for 24 hours at 37° C. • o. 100 μl cells per well were then dispensed in a 96-well, black wall, clear bottom assay plate (Corning Costar, Cat. # 3904). Plate can be pre-formatted with test compounds. • p. […] Cells were incubated for one hour in the dark at room temperature. • 6×CCF2-AM Staining Solution: • 60 μl of Sol B • 6 μl of CCF2-AM (1 mM) • 12 μl of Probenecid (1 M, Sigma, Cat# 8761) • 1 μl of SolC • r. Assay plates were read on a fluorimeter (for example, the Cytofluor 4000 from Perceptive Biosystems) using the following two settings: 460/40 nm emission with 395/25 nm excitation, and 530/25 nm emission with 395/25 nm excitation. • s.

For `CC(C)Cn1c(=O)n(C)c(=O)c2[nH]cnc21` [IBMX, reference compound], the “changes in BLA activity after treatment” value was “none showed changes in BLA activity”.

Same assay, conditions: Mus musculus; SMN2 promoter BLA assay, NSC-34 cells, 96-well plates

In order of rising EC50:
1. Nc1nc(N)c2c(Oc3ccc(F)cc3)cccc2n1 [Compound I-3]  150 nM
2. Nc1nc(N)c2c(Oc3ccccc3)cccc2n1 [Compound I-5]  250 nM
3. Nc1nc(N)c2c(Sc3ccc(Cl)cc3)cccc2n1 [Compound I-2]  530 nM
4. CCOc1cccc2nc(N)nc(N)c12 [Compound I-6]  600 nM
5. OCCNCCCOc1cccc(Cl)c1Cl [VII-1]  3000 nM
6. CN(C)/C=C/c1c(C=O)c2cc([N+](=O)[O-])ccc2n1C [Compound V-1, 2-((E)-2-(dimethylamino)vinyl)-1-methyl-5-nitro-1H-indole-3-carbaldehyde]  6800 nM
7. CCCN(Cc1ccc([N+](=O)[O-])cc1)c1nc(O)nc(NC2CCCC2)n1 [VIII-1]  9000 nM
8. O=C1C(=O)N(C(=O)NC2CCCCC2)c2ccc(Br)cc21 [VI-1]  10000 nM

Same assay, conditions: clone SMN2BLAClone11

In the case of `CCCC(=O)[O-].[Na+]` [sodium butyrate, reference compound], the “increase in BLA expression upon stimulation” value is reported as 1.8 fold.
